Measurements taken from US20230027198A1 (The Rockefeller University, priority 2019, published 2023).

The compounds below were run against T1, ENL YEATS domain (6×HIS ENL YEATS Domain) binding to H3K9cr peptide (Homo sapiens, UniProt Q03111) (assay: TR-FRET ENL Screening Assay, FRET Assay Protocol 1). Conditions: H3K9cr peptide (aa1-20).
T1 construct: aa1-150; EpiCypher, 15-0069; purchased EpiCypher 15-0069
T1 sequence (Q03111 1-150): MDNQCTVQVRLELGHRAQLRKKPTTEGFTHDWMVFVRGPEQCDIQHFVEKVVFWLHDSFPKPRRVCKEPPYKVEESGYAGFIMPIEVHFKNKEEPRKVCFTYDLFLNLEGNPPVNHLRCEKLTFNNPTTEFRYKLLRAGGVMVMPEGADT
Method: Compounds of the invention were dissolved in DMSO at a concentration of 3 mM with subsequent dilutions in assay buffer (50 mM HEPES PH7.0, 150 mM NaCl, 0.05% BSA, 0.2% Pluronic F-127) such that the assay contained 1% DMSO. […] Low control (LC) wells received 5 uL of assay buffer instead of ENL protein. […] Compound concentration response curves were performed in duplicate over the concentration range of 0.15 nM-30 uM. The response at each compound concentration minus the LC value was converted to percent inhibition of the vehicle control group response (HC-LC). The relationship between the % inhibition and the compound concentration was analyzed using a four parameter logistic equation to estimate lower and upper asymptotes, the compound concentration producing 50% inhibition (IC50 value) and the slope at the mid-point location.

| Structure (SMILES) | IC50 |
| --- | --- |
| Cc1noc2ccc(C(=O)Nc3cc4[nH]c(CN5CCC[C@@H]5C)cc4cn3)cc12 [Example 2, 3-methyl-N-(2-[[(2S)-2-methylpyrrolidin-1-yl]methyl]-1H-pyrrolo[3,2-c]pyridin-6-yl)-1,2-benzoxazole-5-carboxamide] | 465 nM |
| Cc1nc2cc(C(=O)Nc3cc4[nH]c(CN5CCC[C@@H]5C)cc4cn3)ccc2o1 [Example 3, 2-methyl-N-(2-[[(2S)-2-methylpyrrolidin-1-yl]methyl]-1H-pyrrolo[3,2-c]pyridin-6-yl)-1,3-benzoxazole-5-carboxamide] | 884 nM |
| Cc1nc2ccc(C(=O)Nc3cc4[nH]c(CN5CCC[C@@H]5C)cc4cn3)cc2o1 [Example 4] | 569 nM |
| Cc1c2ccc(C(=O)Nc3cc4[nH]c(CN5CCC[C@@H]5C)cc4cn3)cc2nn1C [Example 8] | 245 nM |
| COCC1CCN(Cc2cc3cnc(NC(=O)c4ccc5c(cnn5C)c4)cc3[nH]2)C1 (stereo not shown) [Example 9] | 283 nM |
| CC(c1ccc(C(=O)Nc2cc3[nH]c(CN4CCC[C@@H]4C)cc3cn2)cc1)c1ccccn1 (stereo partly drawn) [Example 10, N-(2-[[(2S)-2-methylpyrrolidin-1-yl]methyl]-1H-pyrrolo[3,2-c]pyridin-6-yl)-4-[1-(pyridin-2-yl)ethyl]benzamide] | 1780 nM |
| Cc1cnc(-c2ccc(C(=O)Nc3cc4[nH]c(CN5CCC[C@@H]5C)cc4cn3)c(F)c2)nc1 [Example 14, 2-fluoro-4-(5-methylpyrimidin-2-yl)-N-(2-[[(2S)-2-methylpyrrolidin-1-yl]methyl]-1H-pyrrolo[3,2-c]pyridin-6-yl)benzamide] | 1420 nM |
| C[C@H]1CCCN1Cc1cc2cnc(NC(=O)c3ccc4ncccc4c3)cc2[nH]1 [Example 15] | 263 nM |
| C[C@H]1CCCN1Cc1cc2cnc(NC(=O)c3ccc4c(c3)OCC(=O)N4)cc2[nH]1 [Example 16, N-(2-[[(2S)-2-methylpyrrolidin-1-yl]methyl]-1H-pyrrolo[3,2-c]pyridin-6-yl)-3-oxo-2,4-dihydro-1,4-benzoxazine-7-carboxamide] | 1160 nM |
| C[C@H]1CCCN1Cc1cc2cnc(NC(=O)c3ccc4c(c3)OCC(=O)N4C)cc2[nH]1 [Example 17, 4-methyl-N-(2-[[(2S)-2-methylpyrrolidin-1-yl]methyl]-1H-pyrrolo[3,2-c]pyridin-6-yl)-3-oxo-2H-1,4-benzoxazine-7-carboxamide] | 441 nM |
| C[C@H]1CCCN1Cc1cc2cnc(NC(=O)c3ccc(-c4cnn(CCO)c4)cc3)cc2[nH]1 [Example 20, 4-[1-(2-hydroxyethyl)pyrazol-4-yl]-N-(2-[[(2S)-2-methylpyrrolidin-1-yl]methyl]-1H-pyrrolo[3,2-c]pyridin-6-yl)benzamide] | 166 nM |
| C[C@H]1CCCN1Cc1cc2cnc(NC(=O)c3ccc4cc[nH]c(=O)c4c3)cc2[nH]1 [Example 25] | 395 nM |
| C[C@H]1CCCN1Cc1cc2cnc(NC(=O)c3ccc4c(c3)CNC(=O)C4)cc2[nH]1 [Example 26] | 435 nM |
| COCC#CCn1ncc2cc(C(=O)Nc3cc4[nH]c(CN5CCC[C@@H]5C)cc4cn3)ccc21 [Example 27, 1-(4-methoxybut-2-yn-1-yl)-N-(2-[[(2S)-2-methylpyrrolidin-1-yl]methyl]-1H-pyrrolo[3,2-c]pyridin-6-yl)indazole-5-carboxamide] | 258 nM |
| CC(c1ccncc1)c1ccc(C(=O)Nc2cc3[nH]c(CN4CCC[C@@H]4C)cc3cn2)cc1 (stereo partly drawn) [Example 29, N-(2-[[(2S)-2-methylpyrrolidin-1-yl]methyl]-1H-pyrrolo[3,2-c]pyridin-6-yl)-4-[1-(pyridin-4-yl)ethyl]benzamide] | 527 nM |
| C[C@H]1CCCN1Cc1cc2cnc(NC(=O)c3ccc(-c4ccnn4C)cc3F)cc2[nH]1 [Example 31] | 864 nM |
| C[C@H]1CCCN1Cc1cc2cnc(NC(=O)c3ccc(-c4cn(C)nn4)cc3F)cc2[nH]1 [Example 33] | 418 nM |
| Cc1ccc(-c2ccc(C(=O)Nc3cc4[nH]c(CN5CCC[C@@H]5C)cc4cn3)c(F)c2)nn1 [Example 35] | 657 nM |
| Cc1cnnc(-c2ccc(C(=O)Nc3cc4[nH]c(CN5CCC[C@@H]5C)cc4cn3)c(F)c2)c1 [Example 36] | 669 nM |
